# Test results from ChEMBL document CHEMBL1139244, “Synthesis and antifungal activity of 1H-pyrrolo[3,2-g]quinoline-4,9-diones and 4,9-dioxo-4,9-dihydro-1H-benzo[f]indoles” (2009).
# How the values were obtained:
# Assay type in all cases: functional
# Pichia kudriavzevii = test: Antifungal activity against Candida krusei KCCM 11655 after 1 day; conditions: KCCM 11655, 24 h
# Candida tropicalis = test: Antifungal activity against Candida tropicalis KCCM 50662 after 1 day; conditions: KCCM 50662, 24 h
# Cryptococcus neoformans = test: Antifungal activity against Cryptococcus neoformans KCCM 50564 after 1 day; conditions: KCCM 50564, 24 h
# Candida albicans = test: Antifungal activity against Candida albicans KCCM 50235 after 1 day; conditions: KCCM 50235, 24 h
# Aspergillus niger = test: Antifungal activity against Aspergillus niger KCTC 1231 after 2 days; conditions: KCTC 1231, 48 h
SMILES,MIC (Pichia kudriavzevii) [µg/mL],MIC (Candida tropicalis) [µg/mL],MIC (Cryptococcus neoformans) [µg/mL],MIC (Candida albicans) [µg/mL],MIC (Aspergillus niger) [µg/mL]
COC(=O)c1c2c(n(-c3ccc(C)cc3)c1N)C(=O)c1ncccc1C2=O,12.5,100,12.5,100,> 100
CCOC(=O)c1c2c(n(-c3ccc(F)cc3)c1N)C(=O)c1ncccc1C2=O,> 100,6.3,25,> 100,50
CCOC(=O)c1c2c(n(-c3ccc(C)cc3)c1N)C(=O)c1ncccc1C2=O,12.5,3.2,12.5,> 100,25
CCOC(=O)c1c2c(n(-c3ccc(O)cc3)c1N)C(=O)c1ncccc1C2=O,12.5,0.6,12.5,3.2,25
COC(=O)c1c2c(n(-c3ccc(OC)cc3)c1N)C(=O)c1ncccc1C2=O,12.5,> 100,> 100,> 100,50
CCOC(=O)c1c2c(n(-c3ccc(OC)cc3)c1N)C(=O)c1ncccc1C2=O,> 100,12.5,50,> 100,25
Cn1c(N)c(C#N)c2c1C(=O)c1ccccc1C2=O,12.5,6.3,12.5,12.5,25
Cc1ccc(-n2c(N)c(C#N)c3c2C(=O)c2ccccc2C3=O)cc1,3.2,> 100,100,> 100,> 100
CCn1c(N)c(C#N)c2c1C(=O)c1ccccc1C2=O,12.5,25,12.5,25,25
CCOC(=O)c1c2c(n(-c3ccc(F)c(F)c3)c1N)C(=O)c1ncccc1C2=O,25,50,50,1.6,25
CCOC(=O)c1c2c(n(-c3ccc(C(F)(F)F)cc3)c1N)C(=O)c1ncccc1C2=O,6.3,0.8,12.5,6.3,12.5
Nc1ccc(O)c2ncccc12,100,> 100,100,> 100,> 100
Nc1nc(=O)[nH]cc1F [FLUCYTOSINE],6.3,12.5,12.5,6.3,50
CCOC(=O)c1c2c(n(-c3ccc(Cl)cc3)c1N)C(=O)c1ncccc1C2=O,> 100,3.2,50,> 100,6.3
CCOC(=O)c1c2c(n(-c3ccc(I)cc3)c1N)C(=O)c1ncccc1C2=O,25,3.2,25,25,12.5
COC(=O)c1c2c(n(-c3ccccc3)c1N)C(=O)c1ncccc1C2=O,50,> 100,> 100,> 100,50
CCOC(=O)c1c2c(n(-c3ccccc3)c1N)C(=O)c1ncccc1C2=O,> 100,6.3,50,> 100,50
CCOC(=O)c1c2c(n(-c3ccc(Br)cc3)c1N)C(=O)c1ncccc1C2=O,> 100,3.2,25,50,50
OC(Cn1cncn1)(Cn1cncn1)c1ccc(F)cc1F [FLUCONAZOLE],25,6.3,50,12.5,50
N#Cc1c2c(n(-c3ccccc3)c1N)C(=O)c1ccccc1C2=O,3.2,100,100,100,> 100
